Results published in US20250144067A1, “PERSONALIZED STARVATION THERAPY FOR CANCER” (Faeth Therapeutics, Inc., priority 2021, published 2025).
Where a name gives a salt, the structure may show the parent alone. Read-outs that look alike come from different tables or passages of the source.

Columns and labels:
[1] = test system: NCI-H292 lung cancer cells; assay: FDA drug screening, complete media vs cholesterol-free media without statin (TABLE 1); format: cell-based, human
[2] = test system: NCI-H292 lung cancer cells; assay: FDA drug screening, complete media vs cholesterol-free media with simvastatin (TABLE 2); format: cell-based, human
[3] = Complete minus Cholesterol-free, greater than 0 enhanced anti-cancer activity, about 0 neutral, below 0 antagonist
[4] = NCI-H292 cells, FDA drug library screen, cholesterol-free media without statin
[5] = NCI-H292 cells, FDA drug library screen, complete media
[6] = NCI-H292 cells, FDA drug library screen, cholesterol-free media with simvastatin 0.04 μM
[7] = complete media vs cholesterol-free media + simvastatin (0.04 μM), >0 enhanced anti-cancer activity, about 0 neutral, <0 antagonist
[8] = Complete minus Cholesterol-free, >0 enhanced anti-cancer activity, about 0 neutral, <0 antagonist
[9] = NCI-H292 cells, cholesterol-free media without statin, FDA drug library screen
[10] = NCI-H292 cells, complete media, FDA drug library screen
[11] = complete media minus cholesterol-free media + simvastatin, >0 enhanced anti-cancer activity, about 0 neutral, <0 antagonist
[12] = NCI-H292 cells, cholesterol-free media without statin
[13] = complete vs cholesterol-free media, greater than 0 enhanced anti-cancer activity, about 0 neutral, below 0 antagonists
[14] = NCI-H292 cells, cholesterol-free media with simvastatin 0.04 μM, FDA drug library screen (TABLE 2)
[15] = NCI-H292 cells, complete media, FDA drug library screen (TABLE 2)
[16] = complete media minus cholesterol-free media + simvastatin (0.04 μM), >0 enhanced anti-cancer activity, about 0 neutral, <0 antagonist
[17] = Complete minus Cholesterol-free, […]
[18] = complete vs cholesterol-free media, >0 enhanced anti-cancer activity, about 0 neutral, <0 antagonist
[19] = NCI-H292 cells, drug in cholesterol-free media with simvastatin 0.04 μM
[20] = NCI-H292 cells, drug in complete media

| Molecule | Cholesterol-free media + simvastatin (0.04 μM) [2, 6] | Complete Media [2, 5] | Difference [2, 7] | Cholesterol-free [1, 9] | Complete [1, 10] | Cholesterol-free media + simvastatin (0.04 μM) [2, 14] | Complete Media [2, 15] | Difference [1, 18] | other results |
| --- | --- | --- | --- | --- | --- | --- | --- | --- | --- |
| Cc1oc(=O)oc1COC(=O)[C@@H]1N2C(=O)[C@@H](NC(=O)[C@H](N)c3ccccc3)[C@H]2SC1(C)C [Lenampicillin (hydrochloride)] | 1.05 | 0.9118 | −0.14 |  |  |  |  |  | Difference [1, 3]: −0.08; Cholesterol-free [1, 4]: 1.101; Complete [1, 5]: 1.02 |
| CCCN[C@H]1CCc2nc(N)sc2C1 [Pramipexole (dihydrochloride hydrate)] | 1.173 | 1.35 |  | 0.8255 | 0.873 |  |  |  | Difference [1, 8]: 0.05; Difference [2, 11]: 0.18 |
| C[C@]12CC[C@H](O)CC1=CC[C@@H]1[C@@H]2CC[C@]2(C)C(=O)CC[C@@H]12 [DHEA] |  |  |  | 1.449 | 1.634 |  |  |  | Difference ([1]; complete vs cholesterol-free media, […]): 0.19; Cholesterol-free media + simvastatin (0.04 μM) ([2]; NCI-H292 cells, FDA library drug in cholesterol-free media with simvastatin 0.04 μM): 1.034; Complete Media ([2]; NCI-H292 cells, FDA library drug in complete media): 0.7371; Difference ([2]; complete media vs cholesterol-free media + simvastatin (0.04 μM), […]): −0.30 |
| CCCCc1oc2ccc(NS(C)(=O)=O)cc2c1C(=O)c1ccc(OCCCN(CCCC)CCCC)cc1 [Dronedarone] | 0.4908 | 0.8741 |  |  |  |  |  |  | Difference [1, 3]: −0.14; Cholesterol-free [1, 4]: 1.006; Complete [1, 5]: 0.8674; Difference [2, 11]: 0.38 |
| Orphenadrine (citrate) |  | 1.525 |  |  |  |  |  |  | Difference [1, 3]: −0.10; Cholesterol-free [1, 4]: 0.8697; Complete [1, 5]: 0.768; Difference [2, 11]: 0.38 |
| COc1cc2nc(N3CCN(C(=O)[C@H]4CCCO4)CC3)nc(N)c2cc1OC [(R)-Terazosin] |  |  |  |  |  | 0.9379 | 0.9227 |  | Cholesterol-free [1, 12]: 1.165; Complete ([1]; NCI-H292 cells, complete media): 0.7551; Difference [1, 13]: −0.41; Difference [2, 16]: −0.02 |
| C[C@H]1O[C@@H](O[C@H]2[C@@H](O)C[C@H](O[C@H]3[C@@H](O)C[C@H](O[C@H]4CC[C@@]5(C)[C@H](CC[C@@H]6[C@@H]5CC[C@]5(C)[C@@H](C7=CC(=O)OC7)CC[C@]65O)C4)O[C@@H]3C)O[C@@H]2C)C[C@H](O)[C@@H]1O [Digitoxin] |  |  |  | −0.01931 | 0.0198 | 0.01053 | −0.02212 |  | Difference [1, 17]: 0.04; Difference ([2]; complete media minus cholesterol-free media + simvastatin (0.04 μM), […]): −0.03 |
| CCCN(CCC)C(=O)C(CCC(=O)O)NC(=O)c1ccccc1 (centres unmarked) [Proglumide] |  |  |  | 0.7154 | 1.407 | 0.8053 | 0.7842 | 0.69 | Difference [2, 16]: −0.02 |
| O[C@H]1[C@H](O)[C@@H](O)[C@H](O)[C@@H](O)[C@H]1O [i-Inositol] |  |  |  | 1.553 | 1.54 | 0.9949 | 0.9333 |  | Difference [1, 8]: −0.01; Difference [2, 16]: −0.06 |
| O=C(O)c1ccccc1Nc1cccc(C(F)(F)F)c1 [Flufenamic acid] |  |  | −0.22 |  |  |  |  |  | Difference [1, 8]: −0.24; Cholesterol-free [1, 12]: 1.258; Complete ([1]; NCI-H292 cells, complete media): 1.021; Cholesterol-free media + simvastatin (0.04 μM) [2, 19]: 1.298; Complete Media [2, 20]: 1.077 |
| CC[C@H]1CN2CCc3cc(OC)c(OC)cc3[C@@H]2C[C@@H]1C[C@H]1NCCc2cc(OC)c(OC)cc21 [Emetine (dihydrochloride hydrate)] |  |  |  |  |  |  |  |  | Cholesterol-free [1]: 0.02305; Complete [1]: 0.04288; Difference [1]: 0.02; Cholesterol-free media + simvastatin (0.04 μM) [2]: 0.05048; Complete Media [2]: 0.03214; Difference [2]: −0.02 |
| O=C1OC(OC(=O)c2cccnc2Nc2cccc(C(F)(F)F)c2)c2ccccc21 (centres unmarked) [Talniflumate] |  |  | −0.25 | 0.679 | 1.267 |  |  | 0.59 | Cholesterol-free media + simvastatin (0.04 μM) [2, 19]: 1.554; Complete Media [2, 20]: 1.302 |
| CCOC(=O)[C@H](C)C[C@@H](Cc1ccc(-c2ccccc2)cc1)NC(=O)CCC(=O)O [Sacubitril hemicalcium salt] |  |  |  | 0.6536 | 1.134 | 1.02 | 1 | 0.48 | Difference [2, 16]: −0.02 |
| COS(=O)(=O)[O-].C[n+]1c2ccccc2nc2ccccc21 [Phenazine (methylsulfate)] |  |  |  | 0.03605 | 0.02161 | 0.07249 | 0.06209 |  | Difference [1, 8]: −0.01; Difference [2, 16]: −0.01 |
| Oseltamivir (phosphate) |  |  |  |  |  |  |  |  | Difference [1, 17]: −0.16; Cholesterol-free [1, 4]: 1.28; Complete [1, 5]: 1.117; Cholesterol-free media + simvastatin (0.04 μM) ([2]; NCI-H292 cells, cholesterol-free media with simvastatin 0.04 μM, […]): 0.8277; Complete Media ([2]; NCI-H292 cells, complete media, […]): 0.8627; Difference ([2]; complete media minus cholesterol-free media + simvastatin, […]): 0.04 |
| CO[C@@]1(NC(=O)CSCC#N)C(=O)N2C(C(=O)O)=C(CSc3nnnn3C)CS[C@@H]21 [Cefmetazole (sodium)] | 1.32 | 1.164 | −0.16 | 0.6502 | 0.9897 |  |  | 0.34 |  |
| CC1OC2(CS1)CN1CCC2CC1 (centres unmarked) [Cevimeline (hydrochloride hemihydrate)] |  |  |  | 0.5656 | 1.046 | 0.9444 | 0.9482 | 0.48 | Difference [2, 16]: 0.00 |
| CCOC(=O)O[C@]1(C(=O)OCCl)CC[C@H]2[C@@H]3CCC4=CC(=O)C=C[C@]4(C)[C@H]3[C@@H](O)C[C@@]21C [Loteprednol Etabonate] | 0.9128 | 1.184 |  | 0.5384 | 0.8969 |  |  | 0.36 | Difference [2, 11]: 0.27 |
| CNC[C@H](O)c1cccc(O)c1 [Phenylephrine] | 1.256 | 1.518 |  |  |  |  |  |  | Cholesterol-free [1, 12]: 1.197; Complete ([1]; NCI-H292 cells, complete media): 0.817; Difference [1, 13]: −0.38; Difference [2, 11]: 0.26 |
| COC(=O)CCc1ccc(OCC(O)CNC(C)C)cc1 (centres unmarked) [Esmolol (hydrochloride)] | 1.21 | 1.054 | −0.16 | 0.7243 | 0.9329 |  |  | 0.21 |  |
| CS(=O)(=O)OC[C@H](O)[C@@H](O)COS(C)(=O)=O [Treosulfan] |  |  | −0.18 |  |  |  |  |  | Difference ([1]; Complete minus Cholesterol-free, greater than 0 enhanced anti-cancer activity, about 0 neutral, below 0 antagonists): −0.50; Cholesterol-free ([1]; NCI-H292 cells in cholesterol-free media without statin): 1.319; Complete ([1]; NCI-H292 cells in complete media): 0.8211; Cholesterol-free media + simvastatin (0.04 μM) [2, 19]: 1.216; Complete Media [2, 20]: 1.032 |
| NC(=O)c1cn(Cc2c(F)cccc2F)nn1 [Rufinamide] | 0.995 | 0.8999 | −0.10 | 0.9822 | 0.9785 |  |  |  | Difference [1, 8]: 0.00 |
